The record followed here is patent US7491710B2 (priority 2003, dated 2009).

Where two headings read alike, the source gives them in different places.

What all share (assay): biochemical
In assay [1] the target is human Tie2 (Homo sapiens, UniProt Q02763).
Assay [2] addresses CDK2/cyclin E (Homo sapiens, UniProt P24941).
Assay [3] concerns the target human FAK (Homo sapiens, UniProt Q05397).
The target of assay [4] is human KDR enzyme (Homo sapiens, UniProt P35968).
Assay [5] addresses Aurora2 kinase (Homo sapiens, UniProt O14965).

Sequence of Aurora2 kinase (O14965 whole entry): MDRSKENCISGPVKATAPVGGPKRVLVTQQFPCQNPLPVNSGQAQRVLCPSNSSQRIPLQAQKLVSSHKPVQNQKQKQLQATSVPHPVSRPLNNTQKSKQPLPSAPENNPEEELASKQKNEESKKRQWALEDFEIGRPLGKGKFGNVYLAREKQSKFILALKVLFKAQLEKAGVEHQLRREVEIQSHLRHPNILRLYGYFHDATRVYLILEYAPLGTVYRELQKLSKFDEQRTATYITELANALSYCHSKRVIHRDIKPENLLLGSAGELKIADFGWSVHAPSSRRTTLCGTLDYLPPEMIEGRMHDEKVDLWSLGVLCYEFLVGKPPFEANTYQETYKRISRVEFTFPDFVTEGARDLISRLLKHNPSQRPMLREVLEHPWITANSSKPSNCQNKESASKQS
Sequence of human Tie2 (Q02763 776-1124): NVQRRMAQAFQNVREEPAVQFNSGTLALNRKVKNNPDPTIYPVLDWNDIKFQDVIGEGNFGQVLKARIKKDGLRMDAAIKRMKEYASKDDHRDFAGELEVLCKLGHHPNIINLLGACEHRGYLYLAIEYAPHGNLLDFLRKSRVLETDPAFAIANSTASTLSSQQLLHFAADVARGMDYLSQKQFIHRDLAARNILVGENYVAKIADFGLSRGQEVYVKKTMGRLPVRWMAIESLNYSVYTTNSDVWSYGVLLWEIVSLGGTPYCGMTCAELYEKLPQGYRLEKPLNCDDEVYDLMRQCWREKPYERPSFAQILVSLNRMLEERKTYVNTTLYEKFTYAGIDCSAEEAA
Sequence of human FAK (Q05397 whole entry): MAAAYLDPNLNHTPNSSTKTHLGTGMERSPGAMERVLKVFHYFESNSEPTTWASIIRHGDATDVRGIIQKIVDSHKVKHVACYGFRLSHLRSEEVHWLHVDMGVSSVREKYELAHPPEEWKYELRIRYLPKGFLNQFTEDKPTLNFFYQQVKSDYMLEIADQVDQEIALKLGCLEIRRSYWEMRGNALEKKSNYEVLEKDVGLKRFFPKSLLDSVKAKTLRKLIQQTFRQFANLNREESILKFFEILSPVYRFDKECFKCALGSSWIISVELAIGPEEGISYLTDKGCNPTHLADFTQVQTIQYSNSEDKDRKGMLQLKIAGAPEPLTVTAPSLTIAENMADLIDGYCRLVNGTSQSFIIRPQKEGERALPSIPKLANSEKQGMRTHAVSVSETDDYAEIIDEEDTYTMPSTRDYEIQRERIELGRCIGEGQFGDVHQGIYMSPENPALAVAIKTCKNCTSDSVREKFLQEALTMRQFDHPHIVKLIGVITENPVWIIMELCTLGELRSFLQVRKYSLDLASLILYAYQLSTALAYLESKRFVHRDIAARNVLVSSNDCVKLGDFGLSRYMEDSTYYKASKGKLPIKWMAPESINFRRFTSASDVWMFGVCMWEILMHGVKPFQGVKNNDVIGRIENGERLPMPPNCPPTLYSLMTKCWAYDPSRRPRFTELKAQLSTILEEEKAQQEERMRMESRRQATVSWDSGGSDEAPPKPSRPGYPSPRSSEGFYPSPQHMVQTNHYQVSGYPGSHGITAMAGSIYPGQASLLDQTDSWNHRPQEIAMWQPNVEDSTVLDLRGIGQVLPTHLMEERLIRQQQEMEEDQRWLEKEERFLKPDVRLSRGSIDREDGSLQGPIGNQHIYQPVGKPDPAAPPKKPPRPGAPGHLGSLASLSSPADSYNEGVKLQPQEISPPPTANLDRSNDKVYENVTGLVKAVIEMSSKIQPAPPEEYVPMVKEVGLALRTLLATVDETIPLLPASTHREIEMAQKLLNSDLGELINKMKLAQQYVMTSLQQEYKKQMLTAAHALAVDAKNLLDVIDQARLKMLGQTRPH
Sequence of human KDR enzyme (P35968 786-1356): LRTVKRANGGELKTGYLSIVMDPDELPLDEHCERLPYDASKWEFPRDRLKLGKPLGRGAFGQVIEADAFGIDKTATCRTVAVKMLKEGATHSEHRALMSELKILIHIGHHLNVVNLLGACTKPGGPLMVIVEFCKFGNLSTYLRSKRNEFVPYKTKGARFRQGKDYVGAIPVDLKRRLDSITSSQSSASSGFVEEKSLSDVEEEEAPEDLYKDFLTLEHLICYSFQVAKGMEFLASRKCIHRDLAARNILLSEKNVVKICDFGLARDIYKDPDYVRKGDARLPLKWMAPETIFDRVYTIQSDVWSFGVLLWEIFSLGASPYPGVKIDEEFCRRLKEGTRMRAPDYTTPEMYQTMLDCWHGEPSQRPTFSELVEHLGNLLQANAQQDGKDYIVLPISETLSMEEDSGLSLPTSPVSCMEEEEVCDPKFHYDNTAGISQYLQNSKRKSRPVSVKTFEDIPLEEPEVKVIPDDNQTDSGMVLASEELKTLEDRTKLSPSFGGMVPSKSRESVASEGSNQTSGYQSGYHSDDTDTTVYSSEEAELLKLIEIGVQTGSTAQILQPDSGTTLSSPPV

With `CP(=O)(Oc1ccc2[nH]nc(/C=C/c3ccccc3)c2c1)c1ccccc1` (stereo not drawn) [Example 01, Methylphenylphosphinic acid 3-((E)-styryl)-1H-indazol-5-yl ester], the IC50 – broadly, the concentration at which inhibition is half-maximal – was 40 nM in assay [1]; 234 nM in assay [2]; 279 nM in assay [3]; 158 nM in assay [4]; 37 nM in assay [5].
The matching figures for `O=P(Oc1ccc2[nH]nc(/C=C/c3ccccc3)c2c1)(c1ccccc1)c1ccccc1` [Example 02, Diphenylphosphinic acid 3-((E)-styryl)-1H-indazol-5-yl ester]: 518 nM, 991 nM, 3530 nM, 508 nM and 75 nM.
For `CP(=O)(Oc1ccc2[nH]nc(-c3cc4ccccc4[nH]3)c2c1)c1ccccc1` (stereo not drawn) [Example 03, Methylphenylphosphinic acid 3-(1H-indol-2-yl)-1H-indazol-5-yl ester], in that order: 3 nM, 142 nM, 816 nM, 310 nM and 20 nM.
The matching figures for `O=P(Oc1ccc2[nH]nc(-c3cc4ccccc4[nH]3)c2c1)(c1ccccc1)c1ccccc1` [Example 04, Diphenylphosphinic acid 3-(1H-indol-2-yl)-1H-indazol-5-yl ester]: 22 nM, 586 nM, 2900 nM, 1630 nM and 99 nM.
Regarding `CP(=O)(Oc1ccc2[nH]nc(-c3cc4cc(OCCN5CCOCC5)ccc4[nH]3)c2c1)c1ccccc1` (stereo not drawn) [Example 05, Methylphenylphosphinic acid 3-[5-(2-morpholin-4-ylethoxy)-1H-indol-2-yl]-1H-indazol-5-yl ester], the IC50 in assay [1] turned out to be 11 nM; in assay [2], 394 nM; in assay [3], 48 nM; in assay [4], 141 nM; in assay [5], 15 nM.
The matching figures for `COP(=O)(Oc1ccc2[nH]nc(-c3cc4ccccc4[nH]3)c2c1)c1ccccc1` (stereo not drawn) [Example 06, Phenylphosphonic acid 3-(1H-indol-2-yl)-1-H-indazol-5-yl ester methyl ester]: 48 nM, 184 nM, 740 nM, 288 nM and 15 nM.
Take `CC(C)OP(=O)(Oc1ccc2[nH]nc(-c3cc4ccccc4[nH]3)c2c1)c1ccccc1` (stereo not drawn) [Example 07, Phenylphosphonic acid 3-(1H-indol-2-yl)-1H-indazol-5-yl ester isopropyl ester]: the IC50 in assay [1] was 162 nM; in assay [2], 959 nM; in assay [3], 9640 nM; in assay [4], 2050 nM; in assay [5], 24 nM.
Take `O=P(OCc1ccccc1)(Oc1ccc2[nH]nc(-c3cc4ccccc4[nH]3)c2c1)c1ccccc1` (stereo not drawn) [Example 08, Phenylphosphonic acid 3-(1H-indol-2-yl)-1H-indazol-5-yl ester benzyl ester]: the IC50 in assay [1] amounted to 130 nM; in assay [2], 3700 nM; in assay [3] it was 8300 nM; in assay [4] it was 5400 nM; in assay [5], 53 nM.
In the case of `COP(=O)(Oc1ccc2[nH]ncc2c1)c1ccccc1` (stereo not drawn) [Example 10, Phenylphosphonic acid 1H-indazol-5-yl ester methyl ester], the IC50 was above 10000 nM in assay [1], above 10000 nM in assay [2], above 10000 nM in assay [3] and 9130 nM in assay [5].
Consider `COP(=O)(Oc1ccc2[nH]nc(-c3ccc[nH]3)c2c1)c1ccccc1` (stereo not drawn) [Example 11, Phenylphosphonic acid methyl ester 3-(1H-pyrrol-2-yl)-1H-indazol-5-yl ester], for which the IC50 in assay [1] worked out at 229 nM; in assay [2] it was 199 nM; in assay [4], 1250 nM; in assay [5], 90 nM.
The matching figures for `COP(=O)(OC)c1ccc2[nH]nc(/C=C/c3ccccc3)c2c1` [Example 12, [3-((E)-styryl)-1H-indazol-5-yl]phosphonic acid dimethyl ester]: 2310 nM, 290 nM, 2030 nM and 140 nM.
`COP(=O)(O)c1ccc2[nH]nc(/C=C/c3ccccc3)c2c1` [Example 13, [3-((E)-styryl)-1H-indazol-5-yl]phosphonic acid monomethyl ester] came in with an IC50 in assay [5] of 69 nM.
With `CCOP(=O)(OCC)c1ccc2[nH]nc(/C=C/c3ccccc3)c2c1` [Example 14, [3-((E)-styryl)-1H-indazol-5-yl]phosphonic acid diethyl ester], the IC50 in assay [1] turned out to be 290 nM; in assay [2], 780 nM; in assay [3] it was 5880 nM; in assay [4] it was 1660 nM; in assay [5], 76 nM.
For `COP(=O)(O)c1ccc2[nH]nc(-c3cc4ccccc4[nH]3)c2c1` [Example 15, [3-(1H-Indol-2-yl)-1H-indazol-5-yl]phosphonic acid monomethyl ester], in that order: 4080 nM, 2260 nM, above 10000 nM, above 10000 nM and 108 nM.
In the case of `COP(=O)(O)c1ccc2[nH]nc(-c3cccs3)c2c1` [Example 16, (3-Thiophen-2-yl-1H-indazol-5-yl)phosphonic acid monomethyl ester], the IC50 is 2210 nM in assay [1]; above 10000 nM in assay [2]; above 10000 nM in assay [3]; above 10000 nM in assay [4]; 2200 nM in assay [5].
In assay [5], `COP(=O)(O)c1ccc2[nH]nc(-c3ccc[nH]3)c2c1` [Example 17, [3-(1H-Pyrrol-2-yl)-1H-indazol-5-yl]phosphonic acid monomethyl ester] came in with an IC50 of 770 nM.
Regarding `CP(C)(=O)Oc1ccc2[nH]nc(-c3cc4ccccc4[nH]3)c2c1` [Example 18, Dimethylphosphinic acid 3-(1H-indol-2-yl)-1H-indazol-5-yl ester], the IC50 came out at 33 nM in assay [1]; 33 nM in assay [2]; 7570 nM in assay [3]; 228 nM in assay [4]; 20 nM in assay [5].
In the case of `CCOP(=O)(Oc1ccc2[nH]nc(-c3cc4nc(OC)ccc4[nH]3)c2c1)c1ccccc1` (stereo not drawn) [Example 23, Phenylphosphonic acid ethyl ester 3-(5-methoxy-1H-pyrrolo[3,2-b]pyridin-2-yl)-1H-indazol-5-yl ester], the IC50 in assay [1] is 30 nM; in assay [2], 249 nM; in assay [4] it was 442 nM; in assay [5] it was 24 nM.
For `COc1ccc2[nH]c(-c3n[nH]c4ccc(OP(=O)(OC)c5ccccc5)cc34)cc2n1` (stereo not drawn) [Example 24, phenylphosphonic acid 3-(5-methoxy-1H-pyrrolo[3,2-b]pyridin-2-yl)-1H-indazol-5-yl ester methyl ester], in that order: 22 nM, 142 nM, 364 nM and 24 nM.
For the molecule `COP(=O)(Oc1ccc2[nH]nc(/C=C/c3ccccc3)c2c1)c1ccccc1` (stereo not drawn) [Example 25, Phenylphosphonic acid methyl ester 3-styryl-1H-indazol-5-yl ester], the IC50 in assay [2] was 578 nM; in assay [5] it was 41 nM.
`COP(=O)(Oc1ccc2[nH]nc(-c3cc4ccccc4s3)c2c1)c1ccccc1` (stereo not drawn) [Example 26, Phenylphosphonic acid 3-benzo[b]thiophen-2-yl-1H-indazol-5-yl ester methyl ester]: the IC50 in assay [2] (read-out: CDK2 IC50) worked out at 3240 nM; in assay [5] (read-out: Au2 IC50), 730 nM.
With `COP(=O)(Oc1ccc2[nH]nc(-c3cc4ccccc4s3)c2c1)c1ccccc1` (stereo not drawn) [Example 27, Phenylphosphonic acid 3-benzo[b]thiophen-2-yl-1H-indazol-5-yl ester methyl ester], the IC50 in assay [1] is 353 nM; in assay [2] it was 7560 nM; in assay [4] it was 1880 nM; in assay [5], 134 nM.
`COP(=O)(Oc1ccc2[nH]nc(-c3cc4ccccc4[nH]3)c2c1)C1CCCCC1` (stereo not drawn) [Example 32, Cyclohexylphosphonic acid 3-(1H-indol-2-yl)-1H-indazol-5-yl ester methyl ester]: the IC50 in assay [1] was 119 nM; in assay [2] it was 1500 nM; in assay [4], 999 nM; in assay [5] it was 26 nM.
Regarding `O=P(O)(Oc1ccc2[nH]nc(-c3cc4ccccc4[nH]3)c2c1)c1ccccc1` [Example 33, Phenylphosphonic acid mono-[3-(1H-indol-2-yl)-1H-indazol-5-yl]ester], the IC50 in assay [1] came out at 17 nM; in assay [2], 291 nM; in assay [3] it was 316 nM; in assay [4], 577 nM; in assay [5] it was 10 nM.
